Measurements: patent US20240009175A9, “TETRAZOLE DERIVATIVES” (Merck Patent GmbH, priority 2020, published 2024)

Key:
CHO-K1 cells = assay: Micronucleus assay (MNT) in vitro; assay type: cell-based; design: key: A: negative, putative negative (micronuclei detected beyond threshold of 60% cyctotoxicity); B: positive; conditions: 24 hrs treatment, 0.2 μM to 100 μM
Description: The in vitro MNT assay is performed in CHO-K1 cells due to their stable and well-characterized karyotype, high sensitivity and suitability for a high content imaging approach. They have a basal spontaneous micronucleus frequency of 3-4%.
24 hrs after plating CHO-K1 cells are treated with test compounds for 24 hrs (in duplicates; fixed concentration ranges from 0.2 μM to 100 μM in 2-fold dilution steps). After a medium change cells are incubated for 24 hrs with Cytochalasin B to block cytokinesis and are then fixed and nuclei/micronuclei visualized with a DNA stain. Images are acquired with the Molecular Devices high content imagers IXU or IXM and are analyzed with the dedicated MetaXpress software micronucleus module. Criteria for scoring of micronuclei (MN) are the following: • diameter of the MN should be less than ⅓ of the main nucleus • MN should be separated from or marginally overlap with main nucleus (=no blebs) • MN should have similar staining as the main nucleus
At least 1000 binucleated cells are evaluated per treatment replicate. Mitomycin C is used as reference stimulator of micronucleus formation. Cytotoxicity is evaluated in parallel and defined by comparing total nuclei count in compound-treated samples to neutral control samples treated with vehicle only (1% DMSO) (100% cytotoxicity means all cells are dead or lost).
A test compound is regarded as POSITIVE if generation of micronuclei and exhibition of less than 60% cytotoxicity at the same concentration can be observed.
Compounds are scored only in the soluble concentration range.
Experimental data of the compounds shown in Table 1 in the MNT assay are shown in Table 2 below and classified in the following groups: […]

ACSS2 = ACSS2 (Homo sapiens (Human), UniProt Q9NR19); assay: Cellular assay of 14C acetate incorporation into histones (IC50 ACSS2 cellular histone); assay type: cell-based; conditions: HCT-15 cells
From the text: Cellular Assay of ^14C Acetate Incorporation into Histones (IC50 ACSS2 Cellular Histone)
This protocol describes a cellular assay capable to quantify endogenous histone acetylation activity in the human HCT-15 cancer cell line following the incorporation of extracellularly administered radiolabeled ^14C acetate with a scintillation based read out on acid extracted histones.
HCT-15 cells are trypsinized, washed and suspended in DMEM culture medium supplemented with penicillin/streptomycin (100 U/mL), sodium pyruvate (1 mM), and 10% FBS
Compounds serial dilutions are prepared in 96-well V-bottom microplate from 10 mM stock solutions in DMSO. From these dilutions 0.5 μl are transferred to a fresh plate including pure DMSO as negative control. The dilutions are prepared such, that the final concentration in the assay is 1/400 of the concentration in the serial dilution. The final DMSO concentration in the assay is 0.25%.
The cell suspension is seeded at densities of 2×10^5 cells per 170 μl into individual wells of a 96 well plate each containing 0.5 μl aliquots of compound serial dilutions and are kept for 1 h in a cell incubator. To each well 30 μL of a mixture containing 0.5 mCi/mL of ^14C-acetate with full medium are added. Then, the wells are incubated for 3 hrs in the cell incubator.
Further steps of the procedure should be conducted on ice or instrumentations precooled to 4° C. Cells are sedimented in the 96-well V-bottom microplate by centrifugation (Eppendorf 5804 R) at 1200 rpm for 5 min. The supernatant is removed and the cells are washed twice with 200 μL of PBS-NaB (5 mM sodium butyrate) buffer by iterative resuspension and centrifugation. Finally, the cells are resuspended in 50 μL of TEB (PBS-NaB+0.5% Triton X-100) and left on ice for 10 minutes. After centrifugation at 2300 rpm for 10 minutes at 4° C. the supernatant is removed, the remaining pellet is suspended in 50 μL of 0.2M HCl and incubated over night at 4° C. After incubation the well plate is shaken for 2 minutes in a MTP plate shaker set to 1200 rpm and then centrifuged at 3700 rpm for 10 mins. The lysate is carefully aspirated (˜43 μL) and transferred into a white MTP plate (Greiner bio-one 65509). 90 μL of Ultima Gold XR scintillation cocktail are added and the plates are sealed with a transparent cover tape before mixing vigorously using plate shaker set to 1200 rpm. Radioactivity from ^14C incorporation in the wells is measured as CPM count in a MicroBeta Trilux luminescence counter.

human rec ACSS2 = human rec ACSS2 (Homo sapiens (Human), UniProt Q9NR19); assay: Biochemical activity ACSS2 assay (AMP-Glo); conditions: human recombinant ACSS2, AMP-Glo, 180 min at 37° C.
From the text: Biochemical Activity ACSS2 Assay (IC50 ACSS2 Biochemical)
The biochemical activity assay for ACSS2 is based on the detection of released AMP by AMP-Glo™ Assay kit (Promega, Madison). The assay is run in three steps: the enzymatic reaction in which human rec ACSS2 activates acetate with ATP and Coenzyme A as cosubstrates to acetyl-CoA thereby releasing AMP and the detection reaction of AMP by AMP Glo assay in which after the destruction of the residual ATP with AMP Glo reagent 1 produced AMP is converted to ATP that is measured in a luciferase assay system (detection reagent). The ACSS2 activity correlates with the detected luminescence signal.
The assay was performed in Perkin Elmer 384 well white Proxiplates in a total volume of 8 μl.
1 nM (fc)C-term myc tagged ACSS2 (human, recombinant, Origene, Rockville, US) and a mixture of 100 μM (fc) ATP, 100 μM (fc) Coenzyme A and 500 μM (fc) sodium acetate were incubated in a total volume of 5 μl (50 mM Hepes, 1 mM Mg-chloride, 150 mM NaCl, 1 mM DTT, 0.01% (w/v) BSA, 0.3% DMSO, pH 7.5) in the absence or presence of the test compound (10 dilution concentrations, start conc 30 μM) for 180 min at 37° C. The reaction was stopped and residual ATP destroyed by the addition of 1 μl AMP Glo reagent solution (Promega, Madison, US). After 1h incubation at room temperature 2 μl of AMP Glo detection reagent was added and the assay was incubated for 0.75 hr at room temperature. The luminescence signal was measured with an Envision multimode reader (Perkin Elmer LAS Germany GmbH) at 700 nm in luminescence mode. The full value used was the inhibitor-free reaction. The pharmacological zero value was generated by addition of ACSS2 inhibitor (Ac-CoA Synthase Inhibitor—CAS 508186-14-9-Calbiochem) in a final concentration of 5 μM. The inhibitory values (IC50) were determined using the program Assay Analyzer® from GeneData.

ACSS2, sequence (Q9NR19 whole entry): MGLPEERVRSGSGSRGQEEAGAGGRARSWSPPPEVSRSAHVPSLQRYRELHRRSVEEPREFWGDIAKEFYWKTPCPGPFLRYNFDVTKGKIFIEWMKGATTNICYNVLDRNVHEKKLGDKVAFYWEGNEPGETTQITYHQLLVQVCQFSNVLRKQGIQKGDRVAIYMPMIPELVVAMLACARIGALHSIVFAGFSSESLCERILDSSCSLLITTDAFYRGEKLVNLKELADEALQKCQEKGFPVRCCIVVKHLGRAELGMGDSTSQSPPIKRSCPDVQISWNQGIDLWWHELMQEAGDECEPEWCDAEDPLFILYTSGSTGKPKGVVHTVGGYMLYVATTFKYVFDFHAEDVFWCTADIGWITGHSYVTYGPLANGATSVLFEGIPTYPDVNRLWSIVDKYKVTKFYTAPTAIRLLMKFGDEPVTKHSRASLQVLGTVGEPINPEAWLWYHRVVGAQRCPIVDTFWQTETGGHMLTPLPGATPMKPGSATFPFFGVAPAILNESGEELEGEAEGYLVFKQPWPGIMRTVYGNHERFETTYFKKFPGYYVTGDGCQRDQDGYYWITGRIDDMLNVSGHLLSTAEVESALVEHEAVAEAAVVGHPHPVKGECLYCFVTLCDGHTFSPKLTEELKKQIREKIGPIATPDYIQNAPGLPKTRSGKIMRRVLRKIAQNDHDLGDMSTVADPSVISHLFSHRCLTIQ
human rec ACSS2, sequence (Q9NR19 whole entry): as above

| IC50 (ACSS2) [nM] | IC50 (human rec ACSS2) [nM] | Structure (SMILES) | MNT (CHO-K1 cells) |
| --- | --- | --- | --- |
| 100 to 10000 | 10 to 100 | CCn1c(C(O)(c2ccccc2)c2cccnc2)nc2nc(OC)c(-c3nnn[nH]3)cc21 (racemic) [Compound 44, [1-ethyl-5-methoxy-6-(1H-1,2,3,4-tetrazol-5-yl)-1H-imidazo[4,5-b]pyridin-2-yl](phenyl)(pyridin-3-yl)methanol] | – |
| 1 to 10 | 1 to 10 | CCn1c(C(O)(c2ccccc2F)c2ccc(OC(F)F)cc2F)nc2nc(OC)c(-c3nnn[nH]3)cc21 (racemic) [Compound 54, [4-(difluoromethoxy)-2-fluorophenyl][1-ethyl-5-methoxy-6-(1H-1,2,3,4-tetrazol-5-yl)-1H-imidazo[4,5-b]pyridin-2-yl](2-fluorophenyl)methanol] | – |
| 10 to 100 | 1 to 10 | CCn1c(C(O)(c2ccccc2)c2ccc(OC(F)F)cc2)nc2nc(OC)c(-c3nnn[nH]3)cc21 (racemic) [Compound 53, [4-(difluoromethoxy)phenyl][1-ethyl-5-methoxy-6-(1H-1,2,3,4-tetrazol-5-yl)-1H-imidazo[4,5-b]pyridin-2-yl]phenylmethanol] | – |
| – | 100 to 10000 | CCc1c(C(O)(c2ccccc2)c2ncccn2)nc2cc(OC)c(-c3nnn[nH]3)cn12 (single isomer, unassigned) [Compound 15, [3-Ethyl-7-methoxy-6-(1H-tetrazol-5-yl)-imidazo[1,2-a]pyridin-2-yl]-phenyl-pyrimidin-2-yl-methanol] | – |
| 10 to 100 | 10 to 100 | CCn1c(C(O)(c2ccccc2C)c2ccccc2C)nc2nc(OC)c(-c3nnn[nH]3)cc21 [Compound 39, [1-ethyl-5-methoxy-6-(1H-1,2,3,4-tetrazol-5-yl)-1H-imidazo[4,5-b]pyridin-2-yl]bis(2-methylphenyl)methanol] | – |
| 1 to 10 | 0.01 to 1 | [2H]c1c([2H])c([2H])c(C(O)(c2c([2H])c([2H])c([2H])c([2H])c2[2H])c2nc3nc(OC)c(-c4nnn[nH]4)cc3n2CC)c([2H])c1[2H] [Compound 63, [1-ethyl-5-methoxy-6-(1H-1,2,3,4-tetrazol-5-yl)-1H-imidazo[4,5-b]pyridin-2-yl]bis[(2,3,4,5,6-^2H5)phenyl]methanol] | – |
| – | 0.01 to 1 | COc1nc2nc(C(O)(c3ccccc3)c3ccccc3)n(C)c2cc1-c1nnn[nH]1 [Compound 24, [5-methoxy-1-methyl-6-(1H-1,2,3,4-tetrazol-5-yl)-1H-imidazo[4,5-b]pyridin-2-yl]diphenylmethanol] | – |
| – | 1 to 10 | CCc1cc2nc(C(O)(c3ccccc3)c3ccccc3)c(CC)n2cc1-c1nnn[nH]1 [Compound 1, [3,7-diethyl-6-(1 H-1,2,3,4-tetrazol-5-yl)imidazo[1,2-a]pyridin-2-yl]diphenylmethanol] | – |
| 100 to 10000 | 10 to 100 | CCc1c(C(O)(c2ccccc2)c2ncccn2)nc2cc(OC)c(-c3nnn[nH]3)cn12 (single isomer, unassigned) [Compound 14, [3-Ethyl-7-methoxy-6-(1H-tetrazol-5-yl)-imidazo[1,2-a]pyridin-2-yl]-phenyl-pyrimidin-2-yl-methanol] | – |
| 1 to 10 | 1 to 10 | CCn1c(C(O)(c2ccccc2)c2ccncn2)nc2nc(OC)c(-c3nnn[nH]3)cc21 (racemic) [Compound 25, [1-ethyl-5-methoxy-6-(1H-1,2,3,4-tetrazol-5-yl)-1H-imidazo[4,5-b]pyridin-2-yl](phenyl)(pyrimidin-4-yl)methanol] | – |
| – | 10 to 100 | CCc1c(C(O)(c2ccccc2)c2ccn(C)n2)nc2cc(OC)c(-c3nnn[nH]3)cn12 (single isomer, unassigned) [Compound 18, [3-Ethyl-7-methoxy-6-(1H-tetrazol-5-yl)-imidazo[1,2-a]pyridin-2-yl]-(1-methyl-1H-pyrazol-3-yl)-phenyl-methanol] | – |
| 100 to 10000 | 10 to 100 | CCn1c(C(O)(c2ccccc2)c2ccncc2)nc2nc(OC)c(-c3nnn[nH]3)cc21 (racemic) [Compound 43, [1-ethyl-5-methoxy-6-(1H-1,2,3,4-tetrazol-5-yl)-1H-imidazo[4,5-b]pyridin-2-yl](phenyl)(pyridin-4-yl)methanol] | – |
| – | 100 to 10000 | CCc1c(C(O)(c2ccccc2)c2ccn(C)n2)nc2cc(OC)c(-c3nnn[nH]3)cn12 (single isomer, unassigned) [Compound 17, [3-Ethyl-7-methoxy-6-(1H-tetrazol-5-yl)-imidazo[1,2-a]pyridin-2-yl]-(1-methyl-1H-pyrazol-3-yl)-phenyl-methanol] | – |

| Structure (SMILES) | IC50 (ACSS2) [nM] | IC50 (human rec ACSS2) [nM] | MNT (CHO-K1 cells) |
| --- | --- | --- | --- |
| CCn1c(C(O)(c2ccccc2)c2cccnn2)nc2nc(OC)c(-c3nnn[nH]3)cc21 (stereo not drawn) [Compound 27, [1-ethyl-5-methoxy-6-(1H-1,2,3,4-tetrazol-5-yl)-1H-imidazo[4,5-b]pyridin-2-yl](phenyl)(pyridazin-3-yl)methanol] | 1 to 10 | 1 to 10 | A |
| CCn1c(C(O)(c2ccccc2)c2nccs2)nc2nc(OC)c(-c3nnn[nH]3)cc21 (single isomer, unassigned) [Compound 32, [1-ethyl-5-methoxy-6-(1H-1,2,3,4-tetrazol-5-yl)-1H-imidazo[4,5-b]pyridin-2-yl](phenyl)(1,3-thiazol-2-yl)methanol] | – | 0.01 to 1 | A |
| CCc1c(C(O)(c2ccccc2)c2ccccn2)nc2cc(Cl)c(-c3nnn[nH]3)cn12 (single isomer, unassigned) [Compound 7, [7-chloro-3-ethyl-6-(1H-tetrazol-5-yl)imidazo[1,2-a]pyridin-2-yl]-phenyl-(2-pyridyl)methanol] | – | 10 to 100 | A |
| CCn1c(C(O)(c2ccccc2)c2ccccn2)nc2nc(OC)c(-c3nnn[nH]3)cc21 (single isomer, unassigned) [Compound 41, [1-ethyl-5-methoxy-6-(1H-1,2,3,4-tetrazol-5-yl)-1H-imidazo[4,5-b]pyridin-2-yl](phenyl)(pyridin-2-yl)methanol] | 1 to 10 | 10 to 100 | – |
